Assay results published in patent publication US20250136596A1, “MEMBRANE-ASSOCIATED TYROSINE- AND THREONINE-SPECIFIC CDC2-INHIBITORY KINASE (PKMYT1) INHIBITORS AND USES THEREOF” (Insilico Medicine IP Limited, priority 2022, published 2025).

Biological target: PKMYT1 (Homo sapiens (Human), UniProt Q99640)
Experiment: PKMYT1 HTRF Assay
Assay type: binding
Conditions: Tracer 178, GST-Tb; compound 10 μM to 0.5 nM; read-out: MYT1 HTRF IC50
Procedure, shortened: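 Compound (final 10 μM to 0.5 nM) preincubated with PKMYT1 enzyme 15 min at 25° C, then Tracer 178 added for 60 min at 25° C. GST-Tb added, 15 min at 25° C, before HTRF readout.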

Chain of PKMYT1 (Q99640 whole entry): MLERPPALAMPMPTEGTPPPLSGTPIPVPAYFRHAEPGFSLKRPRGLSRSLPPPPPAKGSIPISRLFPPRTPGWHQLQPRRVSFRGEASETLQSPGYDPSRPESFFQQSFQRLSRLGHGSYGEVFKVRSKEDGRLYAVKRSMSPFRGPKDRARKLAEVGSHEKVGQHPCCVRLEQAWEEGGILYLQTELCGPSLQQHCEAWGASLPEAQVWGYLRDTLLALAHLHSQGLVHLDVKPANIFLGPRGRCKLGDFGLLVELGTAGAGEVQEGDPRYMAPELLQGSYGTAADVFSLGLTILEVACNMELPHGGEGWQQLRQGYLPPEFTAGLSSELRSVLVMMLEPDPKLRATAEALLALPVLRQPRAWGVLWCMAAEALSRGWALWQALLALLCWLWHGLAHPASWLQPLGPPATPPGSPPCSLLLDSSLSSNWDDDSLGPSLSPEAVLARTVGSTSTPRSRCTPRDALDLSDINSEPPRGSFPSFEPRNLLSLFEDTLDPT

| Compound | IC50 [nM] |
| --- | --- |
| Cc1ccc(O)c(C)c1-c1cnc2[nH]c(-c3cnc(N4CC(C)(O)C4)nc3)cc2c1C#N [Example 97, (R)-5-(3-hydroxy-2,6-dimethylphenyl)-2-(2-(3-hydroxy-3-methylazetidin-1-yl)pyrimidin-5-yl)-1H-pyrrolo[2,3-b]pyridine-4-carbonitrile] | < 10 |
| Cc1ncc(-c2cc3cc(-c4c(C)ccc(O)c4C)cnc3[nH]2)cn1 [Example 7, 2,4-dimethyl-3-(2-(2-methylpyrimidin-5-yl)-1H-pyrrolo[2,3-b]pyridin-5-yl)phenol] | 10 to 50 |
| Cc1ncc(-c2cc3nc(-c4c(C)ccc(O)c4C)cnc3[nH]2)s1 [Example 19, 2,4-dimethyl-3-(6-(2-methylthiazol-5-y1)-5H-pyrrolo[2,3-b]pyrazin-2-yl)phenol] | 10 to 50 |
| Cc1ccc(O)c(C)c1-c1cnc2[nH]c(-c3cnc(N4CC5CC4CO5)nc3)c(Cl)c2c1C#N (stereo not shown) [Example 44, 2-(2-(2-oxa-5-azabicyclo[2.2.1]heptan-5-yl)pyrimidin-5-yl)-3-chloro-5-(3-hydroxy-2,6-dimethylphenyl)-1H-pyrrolo[2,3-b]pyridine-4-carbonitrile] | < 10 |
| Cc1ccc(O)c(C)c1-c1cnc2[nH]c(-c3cnc(NCCO)nc3)cc2c1C#N [Example 101, (R)-5-(3-hydroxy-2,6-dimethylphenyl)-2-(2-((2-hydroxyethyl)amino)pyrimidin-5-yl)-1H-pyrrolo[2,3-b]pyridine-4-carbonitrile] | < 10 |
| Cc1ccc(O)c(C)c1-c1cnc2[nH]c(-c3cnc(N(C)C)nc3)c(Cl)c2c1C#N [Example 50, (S)-3-chloro-2-(2-(dimethylamino)pyrimidin-5-yl)-5-(3-hydroxy-2,6-dimethylphenyl)-1H-pyrrolo[2,3-b]pyridine-4-carbonitrile] | < 10 |
| Cc1ccc(O)c(C)c1-c1cnc2[nH]c(-c3cnc(N4CC(O)C4)nc3)cc2n1 [Example 18, 1-(5-(2-(3-hydroxy-2,6-dimethylphenyl)-5H-pyrrolo[2,3-b]pyrazin-6-yl)pyrimidin-2-yl)azetidin-3-ol] | < 10 |
| Cc1ccc(O)c(C)c1-c1cnc2[nH]c(-c3cnc(N4CCC(C(=O)O)C4)nc3)c(Cl)c2c1C#N [Example 72, (R)-1-(5-((R)-3-chloro-4-cyano-5-(3-hydroxy-2,6-dimethylphenyl)-1H-pyrrolo[2,3-b]pyridin-2-yl)pyrimidin-2-yl)pyrrolidine-3-carboxylic acid] | < 10 |
| Cc1cnc(-c2cc3cc(-c4c(C)ccc(O)c4C)cnc3[nH]2)cn1 [Example 29, 2,4-dimethyl-3-(2-(5-methylpyrazin-2-yl)-1H-pyrrolo[2,3-b]pyridin-5-yl)phenol] | 50 to 500 |
| Cc1ccc(O)c(C)c1-c1cnc2[nH]c(-c3cncc(N4CCC(O)CC4)c3)cc2c1C#N [Example 89, 5-(3-hydroxy-2,6-dimethylphenyl)-2-(5-(4-hydroxypiperidin-1-yl)pyridin-3-yl)-1H-pyrrolo[2,3-b]pyridine-4-carbonitrile] | < 10 |
| Cc1ccc(O)c(C)c1-c1cnc2[nH]c(-c3cnc(C4CC4)nc3)cc2c1C#N [Example 56, (S)-2-(2-cyclopropylpyrimidin-5-yl)-5-(3-hydroxy-2,6-dimethylphenyl)-1H-pyrrolo[2,3-b]pyridine-4-carbonitrile] | < 10 |
| Cc1ccc(O)c(C)c1-c1cnc2[nH]c(-c3cnc(C(F)F)nc3)c(Cl)c2c1C#N [Example 54, (S)-3-chloro-2-(2-(difluoromethyl)pyrimidin-5-yl)-5-(3-hydroxy-2,6-dimethylphenyl)-1H-pyrrolo[2,3-b]pyridine-4-carbonitrile] | < 10 |
| Cc1ccc(O)c(C)c1-c1cnc2[nH]c(-c3ccc(N4CCN(C)CC4)nc3C)nc2c1 [Example 1, 2,4-dimethyl-3-(2-(2-methyl-6-(4-methylpiperazin-1-yl)pyridin-3-yl)-3H-imidazo[4,5-b]pyridin-6-yl)phenol] | 50 to 500 |
| Cc1ccc(O)c(C)c1-c1cnc2[nH]c(-c3cnc(N)nc3)c(C)c2c1C#N [Example 106, (R)-2-(2-aminopyrimidin-5-yl)-5-(3-hydroxy-2,6-dimethylphenyl)-3-methyl-1H-pyrrolo[2,3-b]pyridine-4-carbonitrile] | < 10 |
| Cc1ncc(-c2[nH]c3ncc(-c4c(C)ccc(O)c4C)nc3c2Cl)cn1 [Example 16, 3-(7-chloro-6-(2-methylpyrimidin-5-y1)-5H-pyrrolo[2,3-b]pyrazin-2-yl)-2,4-dimethylphenol] | < 10 |
| Cc1ccc(O)c(C)c1-c1cnc2[nH]c(-c3nnc[nH]3)cc2c1C#N [Example 135, 5-(3-hydroxy-2,6-dimethylphenyl)-2-(4H-1,2,4-triazol-3-yl)-1H-pyrrolo[2,3-b]pyridine-4-carbonitrile] | < 10 |
| Cc1ccc(O)c(C)c1-c1cnc2[nH]c(-c3cnn(CCCO)c3)cc2c1C#N [Example 131, (S)-5-(3-hydroxy-2,6-dimethylphenyl)-2-(1-(3-hydroxypropyl)-1H-pyrazol-4-yl)-1H-pyrrolo[2,3-b]pyridine-4-carbonitrile] | < 10 |
| Cc1ncc(-c2cc3c(C#N)c(-c4c(C)ccc(O)c4C)cnc3[nH]2)c(N)n1 [Example 92, 2-(4-amino-2-methylpyrimidin-5-yl)-5-(3-hydroxy-2,6-dimethylphenyl)-1H-pyrrolo[2,3-b]pyridine-4-carbonitrile] | < 10 |
| Cc1ccc(O)c(C)c1-c1cnc2[nH]c(-c3cnc(N)s3)cc2c1C#N [Example 126, (S)-2-(2-aminothiazol-5-yl)-5-(3-hydroxy-2,6-dimethylphenyl)-1H-pyrrolo[2,3-b]pyridine-4-carbonitrile] | < 10 |
